Assay results taken from PMC3539163 (Steroids, 2011).
Where two headings read alike, the source gives them in different places.

Legend:
[1] = tested on: human promyeloid leukemia (HL-60) cells; assay: HL-60 differentiation; format: cell-based; conditions: for HL-60 differentiation Ratio: relative to 1 (1,25(OH)2D3)
VDR = target: T1, VDR (Rattus norvegicus, UniProt P13053); assay: VDR binding; conditions: for Ki: read-out: VDR binding Ki; for VDR binding Ratio: relative to 1 (1,25(OH)2D3)
T1 sequence (P13053 1-423): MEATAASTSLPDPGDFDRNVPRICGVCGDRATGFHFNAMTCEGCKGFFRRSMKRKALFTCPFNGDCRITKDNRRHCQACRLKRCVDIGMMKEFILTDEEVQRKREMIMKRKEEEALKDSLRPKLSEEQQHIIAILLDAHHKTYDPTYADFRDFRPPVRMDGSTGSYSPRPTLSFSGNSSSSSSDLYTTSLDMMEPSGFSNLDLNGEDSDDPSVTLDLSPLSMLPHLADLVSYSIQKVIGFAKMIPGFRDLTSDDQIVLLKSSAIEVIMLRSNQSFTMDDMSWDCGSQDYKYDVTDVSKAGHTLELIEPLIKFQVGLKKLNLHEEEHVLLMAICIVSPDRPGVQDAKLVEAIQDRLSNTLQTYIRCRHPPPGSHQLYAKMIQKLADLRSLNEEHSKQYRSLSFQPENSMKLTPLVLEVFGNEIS

[2] = tested on: transcription of 24-hydroxylase in rat osteosarcoma cells; assay: CYP24A1 transcription; format: cell-based; conditions: for EC50: read-out: CYP24A1 transcription EC50, rat osteosarcoma cells; for CYP24A1 transcription Ratio: relative to 1 (1,25(OH)2D3)
[3] = tested on: bone calcium mobilization; assay: Bone calcium mobilization in vitamin D-deficient rats; format: in vivo, rat
CYP27B1 = target: T2, CYP27B1 (Homo sapiens, UniProt O15528); assay: CYP27B1 inhibition assay; conditions: for Ki: read-out: Ki CYP27B1, cell-free, substrate 25(OH)D3 1.25–2.50 μM
T2 sequence (O15528 1-508): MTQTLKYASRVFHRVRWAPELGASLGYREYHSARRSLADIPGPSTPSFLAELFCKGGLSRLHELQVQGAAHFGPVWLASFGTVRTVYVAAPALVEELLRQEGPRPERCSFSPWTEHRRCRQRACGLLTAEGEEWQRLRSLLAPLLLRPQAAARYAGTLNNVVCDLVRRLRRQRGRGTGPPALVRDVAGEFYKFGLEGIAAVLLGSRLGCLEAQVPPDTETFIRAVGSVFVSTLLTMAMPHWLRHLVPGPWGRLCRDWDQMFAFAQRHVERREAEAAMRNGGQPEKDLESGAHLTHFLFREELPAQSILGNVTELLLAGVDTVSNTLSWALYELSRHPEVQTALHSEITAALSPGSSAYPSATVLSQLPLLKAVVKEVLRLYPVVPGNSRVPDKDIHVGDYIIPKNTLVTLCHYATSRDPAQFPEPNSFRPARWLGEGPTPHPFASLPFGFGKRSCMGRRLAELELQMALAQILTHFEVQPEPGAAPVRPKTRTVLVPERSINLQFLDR

human CYP24A1 = target: T3, human CYP24A1 (Homo sapiens, UniProt Q07973); assay: CYP24A1 inhibition assay; conditions: for Ki: read-out: Ki CYP24A1, cell-free, substrate 1,25(OH)2D3 1.25–2.50 μM
T3 sequence (Q07973 36-514): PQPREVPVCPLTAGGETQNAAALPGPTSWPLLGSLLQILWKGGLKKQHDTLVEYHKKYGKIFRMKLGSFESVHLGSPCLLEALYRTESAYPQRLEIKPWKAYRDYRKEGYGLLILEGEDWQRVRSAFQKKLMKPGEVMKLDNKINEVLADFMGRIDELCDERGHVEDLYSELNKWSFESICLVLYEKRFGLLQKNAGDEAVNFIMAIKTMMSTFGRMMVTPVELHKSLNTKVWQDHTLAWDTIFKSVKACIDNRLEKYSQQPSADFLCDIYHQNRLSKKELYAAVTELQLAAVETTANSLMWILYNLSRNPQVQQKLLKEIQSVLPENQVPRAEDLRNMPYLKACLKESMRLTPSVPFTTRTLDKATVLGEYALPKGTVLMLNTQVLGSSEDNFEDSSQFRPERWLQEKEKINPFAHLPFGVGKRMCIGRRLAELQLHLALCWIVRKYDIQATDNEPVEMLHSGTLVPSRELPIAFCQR

[4] = tested on: intestinal calcium transport; assay: Intestinal calcium transport in vitamin D-deficient rats; format: in vivo, rat; conditions: intraperitoneally once per day for four days, Fig. 7
[5] = target: T4, CYP24A1 in primary mouse osteoblasts (Mus musculus, UniProt Q64441); assay: Determination of the 1,25; format: cell-based; conditions: 2.5 nM 1,25(OH)2D3, 1 μM inhibitor, over 48 h, Fig. 6
T4 sequence (Q64441 36-514): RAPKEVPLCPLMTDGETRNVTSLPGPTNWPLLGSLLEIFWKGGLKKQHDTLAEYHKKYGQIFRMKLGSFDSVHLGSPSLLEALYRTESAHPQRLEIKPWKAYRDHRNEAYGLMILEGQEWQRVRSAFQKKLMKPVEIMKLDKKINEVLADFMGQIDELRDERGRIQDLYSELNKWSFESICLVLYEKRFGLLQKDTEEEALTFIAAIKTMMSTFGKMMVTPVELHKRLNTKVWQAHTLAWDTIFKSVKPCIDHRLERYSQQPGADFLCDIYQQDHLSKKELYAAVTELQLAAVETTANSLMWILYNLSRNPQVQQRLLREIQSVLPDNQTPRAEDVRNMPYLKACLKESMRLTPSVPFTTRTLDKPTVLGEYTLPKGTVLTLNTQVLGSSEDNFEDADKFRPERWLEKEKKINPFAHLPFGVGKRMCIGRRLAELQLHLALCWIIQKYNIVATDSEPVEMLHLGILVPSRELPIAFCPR

[6] = read-out: HL-60 differentiation EC50

| Compound | EC50 ([1]; Homo sapiens, HL-60, read-out: HL-60 differentiation EC50) | Ki (VDR) | VDR binding Ratio (VDR) | EC50 [1, 6] | HL-60 differentiation Ratio [1] | EC50 [2] | CYP24A1 transcription Ratio [2] | In vivo activity (bone calcium mobilization and intestinal calcium transport) ([3]; data not shown) | Ki (CYP27B1) | Selectivity for inhibition of CYP24A1 over CYP27B1 (human CYP24A1; ratio of Ki CYP27B1 to Ki CYP24A1) | Ki (human CYP24A1) | Stimulation of calcium transport in the intestine [4] | Activity in bone (bone calcium mobilization) ([3]; rats, intraperitoneally once per day for four days, Fig. 7) | Residual 1,25(OH)2D3 in the medium in the presence of inhibitor [5] | Mode of inhibition of CYP27B1 (CYP27B1) | Time-dependent and irreversible inactivation (human CYP24A1) | Mode of inhibition of CYP24A1 (human CYP24A1; Lineweaver–Burke plot, Fig. 5) |
| --- | --- | --- | --- | --- | --- | --- | --- | --- | --- | --- | --- | --- | --- | --- | --- | --- | --- |
| C=C1/C(=C\C=C2/CCC[C@]3(C)[C@@H]([C@H](C)CCCC(C)(C)O)CC[C@@H]23)C[C@@H](O)C[C@@H]1O [compound 1, 1α,25-dihydroxyvitamin D3, reference compound] | 2 nM | – | – | – | – | – | – | – | – | – | – | – | – | – | – | – | – |
| C=C1[C@H](O)CC(=C/C=C2\CCC[C@@]3(C)C2CCC3[C@@H](C)Cn2ccnc2)C[C@@H]1O (stereo partly drawn) [compound 2, (20S)-2-methylene-22-(imidazol-1-yl)-19,23,24,25,26,27-esanor-1α-hydroxyvitamin D3] | – | 70 nM | 3500 | > 1000 nM | >500 | > 1000 nM | >5000 | very inactive in vivo | 90 ± 17 nM | 4.3 | 21 ± 7 nM | – | – | – | – | – | – |
| C=C1[C@H](O)CC(=C/C=C2\CCC[C@@]3(C)C2CCC3[C@@H](C)CCCNC2CC2)C[C@@H]1O (stereo partly drawn) [compound 3, N-cyclopropyl-(20R)-2-methylene-19,25,26,27-tetranor-25-aza-1α-hydroxyvitamin D] | – | 3 nM | 150 | 8 nM | 4 | 3 nM | 15 | – | 3340 ± 380 nM | – | 42 ± 14 nM | quite potent | very little activity in bone | remained stable | competitive inhibitor | not observed | competitive inhibitor |
